Data taken from US5075336A, “Alkaline earth metal salts of oxa polyacid compounds” (Adir et Compagnie, priority 1990, dated 1991).
Read-outs that look alike come from different tables or passages of the source. One block for each molecule: values may come before it.

Columns and labels:
[1] = tested on: Demi-calvarias of newly born mice; assay: Osseous formation in tissue culture: incorporation of tritiated proline (T/C ratio); type: cell-based; details: 48 h, n = 7
Method: (§1) The activity on osseous formation and the anti-resorbing activity of compounds potentially active as medicaments may be detected and measured in vitro in tissue culture.
Demi-calvarias of newly born mice (1-2 days) are cultured on gratings in BGJ medium containing tritiated proline. The explants are cultured for 48 h in the presence of the tested compound at 37° C. and at the end of the culture the bones are washed in trichloroacetic acid containing non-radioactive proline in order to remove the ^3 H-proline which has not been incorporated.
After washing and dissolving in sodium hydroxide solution, the incorporation of the labler in the bone and the amount of total proteins are counted. The effect of the product on the incorporation of proline in the bone in culture is thus evaluated.
Each treated demi-calvaria is compared with the untreated demi-calvaria which serves as control and the T/C ratio is calculated. [formula]
A stimulation of the osseous formation is reflected by a higher incorporation of tritiated proline in the treated demi-calvaria than in the control (T/C>1). An inhibition of the osseous formation is shown by a T/C ratio of <1.
The compounds were tested at concentrations of 10^-4, 10^-6, 10^-8, 10^-10 and 10^-12 M.
6 to 9 experiments were carried out per point.

[2] = tested on: forearms of rat foetuses (PTH-stimulated osseous resorption); assay: Osseous resorption in tissue culture: 45Ca salted out from PTH-stimulated foetal forearm bones; type: cell-based, rats
Method: as §1
18-day pregnant rats are injected with 150 μcuries of ^45 Ca subcutaneously.
On the 19th day the rats are sacrificed and the foetuses are removed, immersed in a bath of alcohol at 70° are then two baths of PBS and killed by cutting off the head. The two forearms are dissected, the skin, the tendons and the muscles are removed and the cartilaginous extremities are cut off. The forearms are cultured in 24-well culture boxes in the presence of 1.5 ml of MEM for 24 hours for equilibration. At the end of said 24 hours, the medium is replaced by 1.5 ml of BGJB supplemented with 10% of foetal calf serum. The resorption is stimulated in all of the samples by […] of PTH. The bones are cultured for two successive periods of 72 hours each and the culture media are removed to determine the amount of ^45 Ca salted out at the end of each of these two periods. At the end of the second period (7 days after the start of culture), the bones are immersed for 24 hours in 1.5 ml of 10% formic acid and the ^45 Ca salted out from the bones is also determined in a scintillation counter.
The results are expressed for each of the two culture periods by the treated/control ratio calculated in the following way: [formula]
The compounds were tested on this model at concentrations of 5×10^-3 and 5×10^-4 M.

[3] = Bioavailability (Sr2+ by atomic absorption spectrometry); details: rat, in vivo, po, 50 mg/kg; male wistar rats, 50 mg Sr2+ per kg, gelatin mini capsules; compared with strontium chloride; read-out: Absolute bioavailability
Method: the determination was carried out on groups of 5 male wistar rats
administration is in a dose of 50 mg of Sr^2+ per kg in the form of gelatin mini capsules,
the determination was carried out by atomic absorption spectrometry using flame ionisation for the concentrations higher than 1 μg/ml and furnace ionisation for the concentrations lower than 1 μg/ml

[4] = PTH alone (reference of the ratio)

bioavailability [3]: 60.5%
Molecule: CCOC(OC(CO)C(=O)O)C(=O)O (stereo not drawn) [Example 1, Strontium 2-ethoxy-4-hydroxymethyl-3-oxa pentanedioate]
Osseous formation, T/C ratio, maximum value ([1]; 10^-4 M): 1.8034
Osseous formation, T/C ratio, minimum value ([1]; 10^-4 M): 1.2095
Osseous formation, T/C ratio, maximum value ([1]; 10^-6 M): 1.4652
Osseous formation, T/C ratio, minimum value ([1]; 10^-6 M): 0.8433
Osseous formation, T/C ratio, maximum value ([1]; 10^-8 M): 1.2092
Osseous formation, T/C ratio, minimum value ([1]; 10^-8 M): 0.8511
Osseous formation, T/C ratio, maximum value ([1]; 10^-10 M): 1.0974
Osseous formation, T/C ratio, minimum value ([1]; 10^-10 M): 0.8467
Osseous formation, T/C ratio, maximum value ([1]; 10^-12 M): 1.2822
Osseous formation, T/C ratio, minimum value ([1]; 10^-12 M): 0.8988
activity at 100 µM ([1]; Mus musculus, 10^-4 M, 37° C., marked **): 150%
activity at 1 µM ([1]; Mus musculus, 10^-6 M, 37° C.): 107%
activity at 0.01 µM ([1]; Mus musculus, 10^-8 M, 37° C.): 103%
activity at 0.0001 µM ([1]; Mus musculus, 10^-10 M, 37° C.): 97.2%
activity at 1 pM ([1]; Mus musculus, 10^-12 M, 37° C.): 106%
Level of osseous resorption (%), D1-D4 ([2]; 5 10^-3 (M), PTH-stimulated, 9 determinations per point, (c) different from PTH at p < 0.05): 6.4 ± 0.9%
Level of osseous resorption (%), D1-D4 ([2]; 5 10^-4 (M), PTH-stimulated, 9 determinations per point): 14.5 ± 4.1%
activity at 5000 µM ([2]; Rattus norvegicus, 5 10^-3 (M), PTH-stimulated, read-out: Osseous resorption T/C, D1-D4): 45%
activity at 5000 µM ([2]; Rattus norvegicus, 5 10^-3 (M), PTH-stimulated, read-out: Osseous resorption T/C, D4-D7): 6%
activity at 500 µM ([2]; Rattus norvegicus, 5 10^-4 (M), PTH-stimulated, read-out: Osseous resorption T/C, D1-D4): 101%
activity at 500 µM ([2]; Rattus norvegicus, 5 10^-4 (M), PTH-stimulated, read-out: Osseous resorption T/C, D4-D7): 84%
minimal effective concentration ([2]; Rattus norvegicus, in vitro, PTH-stimulated, read-out: Concentration from which anti-resorbing activity is statistically significant): 500 µM

B1: PTH: PTH, used to stimulate the resorption in all of the samples (protein, UniProt P01270 32-115, looked up)
Parathyroid hormone: SVSEIQLMHNLGKHLNSMERVEWLRKKLQDVHNFVALGAPLAPRDAGSQRPRKKEDNVLVESHEKSLGEADKADVNVLTKAKSQ
modifications: Parathyroid hormone
notes: PTH, used to stimulate the resorption in all of the samples
Osseous resorption T/C, D1-D4 [2, 4]: 1.00
Osseous resorption T/C, D4-D7 [2, 4]: 1.00
Level of osseous resorption (%), D1-D4 ([2]; PTH alone, 9 determinations per point, (a) different from control at p < 0.05): 14.3 ± 3.4%
Level of osseous resorption (%), D1-D7 ([2]; PTH alone, 9 determinations per point, (b) different from control at p < 0.0001): 37.0 ± 7.6%
